Laboratory results reported in BindingDB's records for PubMed 2530338 (Medical University of South Carolina, 1989).

Target: T1, Thromboxane A2 receptor (Homo sapiens, UniProt P21731)
T1 sequence (P21731 whole entry): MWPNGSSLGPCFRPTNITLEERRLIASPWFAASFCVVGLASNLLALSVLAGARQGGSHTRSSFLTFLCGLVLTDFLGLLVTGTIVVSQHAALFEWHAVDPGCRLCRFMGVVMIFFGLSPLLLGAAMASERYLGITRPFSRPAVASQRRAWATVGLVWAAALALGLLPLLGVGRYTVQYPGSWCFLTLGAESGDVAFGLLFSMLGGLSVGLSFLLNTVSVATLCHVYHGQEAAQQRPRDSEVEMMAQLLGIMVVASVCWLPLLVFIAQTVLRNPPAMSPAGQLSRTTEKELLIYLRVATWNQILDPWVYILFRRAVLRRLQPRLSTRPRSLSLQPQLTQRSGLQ

Ki [nM]	SMILES
41	CCCCC[C@H](O)CC[C@H]1c2cc([nH]n2)[C@@H]1CC=CCCCC(=O)O [9,11-AzoPGH2]
424	O=C(O)C[C@@H]1CCCc2c1n(Cc1ccc(Cl)cc1)c1ccc(F)cc21 [CAS_113243-00-8]
17	CCCCC[C@H](O)/C=C/C1C[C@H]2C[C@H](S2)[C@@H]1C/C=C\CCCC(=O)O (some centres undefined) [STA2]
62	CCCCC[C@H](O)/C=C/C1[C@@H](C/C=C\CCCC(=O)O)[C@H]2CO[C@@H]1C2 (some centres undefined) [U46619]
